Measured values: article PMC11202002, “P18: Novel Anticancer Peptide from Induced Tumor-Suppressing Cells Targeting Breast Cancer and Bone Metastasis” (Cancers, 2024)
Like-named read-outs stand apart in the source and are kept apart here.

How the values were obtained:
[1] = tested on: MDA-MB-436 cells; test: MTT-based cell viability assay; design: species or system human; details: for MTT-based relative viability: relative to cn = 1.00, peptide concentration not given, treated two days, OD 562 nm
Protocol: (§1) Using 96-well plates with approximately 2000 cells per well, an MTT-based metabolic activity assay was performed. The cells were treated with agents and incubated for two days. On the fourth day, they were stained with 0.5 mg/mL thiazolyl blue tetrazolium bromide (M5655, Sigma). The optical density, used to assess metabolic activity, was measured at 562 nm. For the EdU-based proliferation activity assay, the cells were seeded in 96-well plates at about 1000 cells per well. A fluorescence-based cell proliferation kit (Click-iT™, EdU Alexa Fluor™ 488 Imaging Kit; Thermo Fisher, Waltham, MA, USA) was used according to the manufacturer’s instructions.

[2] = tested on: MDA-MB-231 cells; test: MTT-based cell viability assay; design: species or system human; details: for MTT-based relative viability: relative to cn = 1.00, peptide concentration not given, treated two days, OD 562 nm
Protocol: as §1

[3] = tested on: human triple-negative breast cancer tissue; test: Ex vivo cancer tissue assay; type: cell-based; details: 5 µM Cisplatin or Taxol with 25 µg/mL of P18; 48 and 96 h; n = 6
Protocol: The usage of human triple-negative breast cancer tissue was approved by the Indiana University Institutional Review Board (1911155674), and the tissues were received from the Indiana University Simon Comprehensive Cancer Center Tissue Procurement Core. Freshly isolated breast cancer tissue (~10 mg) was manually fragmented with a scalpel into small pieces (0.5~0.8 mm in length), which were grown in DMEM with 10% FBS and antibiotics for a day. […] The culture medium, consisting of these agents, was applied for 4 days, and a change in the fragment size was determined.

[4] = tested on: 4T1.2 mammary tumor cells; test: MTT-based cell viability assay; design: species or system mouse
Protocol: as §1

[5] = tested on: TT2 osteosarcoma cell line; test: MTT-based cell viability assay; details: TT2 OS cells
Protocol: as §1

[6] = tested on: PANC1 PDAC cells; test: MTT-based cell viability assay
Protocol: as §1

[7] = tested on: PANC198 PDAC cells; test: MTT-based cell viability assay; details: PANC198 (PAN198)
Protocol: as §1

[8] = tested on: MCF7 cells; test: MTT-based cell viability assay; design: species or system human
Protocol: as §1

Molecule: EEAESTLQSFR [P14, ACP candidate … from Vim]
- MTT-based relative viability [1]: 0.84
- MTT-based relative viability [2]: 0.88

Molecule: NDLAVVDVR [P13, ACP candidate … from Ncl]
- MTT-based relative viability [1]: 0.95
- MTT-based relative viability [2]: 0.98

Molecule: CC(=O)O[C@H]1C(=O)[C@@]2(C)[C@H]([C@H](OC(=O)c3ccccc3)[C@]3(O)C[C@H](OC(=O)[C@H](O)[C@@H](NC(=O)c4ccccc4)c4ccccc4)C(C)=C1C3(C)C)[C@]1(OC(C)=O)CO[C@@H]1C[C@@H]2O [Taxol, reference compound]
- IC50 ([2]; Homo sapiens, drug alone, read-out: IC50, MTT-based viability): 700 nM
- IC50 ([2]; Homo sapiens, drug in combination with P18, read-out: IC50, MTT-based viability, with application of P18): 300 nM
- size of cancer tissues, drug with concurrent P18 versus drug alone [3]: more pronounced reduction in the size

Molecule: IEVIEIMTDR [P22, ACP candidate … from Hnrnpa1]
- MTT-based relative viability [1]: 0.88
- MTT-based relative viability [2]: 0.86

Molecule: DQVANSAFVER [P19, ACP candidate … from Hsp90aa1]
- MTT-based relative viability [1]: 0.96
- MTT-based relative viability [2]: 1.09

Molecule: QITLNDLPVGR [P20, ACP candidate … from Prdx4]
- MTT-based relative viability [1]: 0.86
- MTT-based relative viability [2]: 0.87

Molecule: VNFTVDQIR [P12, ACP candidate … from Eef2]
- MTT-based relative viability [1]: 0.92
- MTT-based relative viability [2]: 0.94

Molecule: FEELNADLFR [P21, ACP candidate … from Hspa8]
- MTT-based relative viability [1]: 0.92
- MTT-based relative viability [2]: 0.89

Molecule: YEWDVAEAR [P16, ACP candidate … from Eef2]
- MTT-based relative viability [1]: 0.96
- MTT-based relative viability [2]: 0.93

Molecule: TDYMVGSYGPR-NH2 [P18-NH2, C-terminal-amidated P18, …-NH2]
- tumor-suppressor effect compared with the original P18 (MTT) [4]: did not improve the tumor-suppressor effect
- tumor-suppressor effect compared with the original P18 (MTT) [5]: did not improve the tumor-suppressor effect
- tumor-suppressor effect compared with the original P18 (MTT) [6]: did not improve the tumor-suppressor effect
- tumor-suppressor effect compared with the original P18 (MTT) [7]: did not improve the tumor-suppressor effect
- tumor-suppressor effect compared with the original P18 (MTT) [1]: did not improve the tumor-suppressor effect
- tumor-suppressor effect compared with the original P18 (MTT) [8]: did not improve the tumor-suppressor effect
- tumor-suppressor effect compared with the original P18 (MTT) [2]: did not improve the tumor-suppressor effect

Molecule: LGDLYEEEMR [P17, ACP candidate … from Vim]
- MTT-based relative viability [1]: 0.99
- MTT-based relative viability [2]: 1.10

Molecule: N.N.[Cl][Pt][Cl] [Cisplatin, reference compound]
- IC50 ([2]; drug alone, read-out: IC50, MTT-based viability): 1200 nM
- IC50 ([2]; drug in combination with P18, read-out: IC50, MTT-based viability, with application of P18): 500 nM
- size of cancer tissues, drug with concurrent P18 versus drug alone [3]: more pronounced reduction in the size

Molecule: FEDENFILK [P11, ACP candidate … from Ppia]
- MTT-based relative viability [1]: 0.95
- MTT-based relative viability [2]: 0.96

Molecule: IDTIEIITDR [P15, ACP candidate … from Hnrn]
- MTT-based relative viability [1]: 0.95
- MTT-based relative viability [2]: 0.93

B1: Arhgdia: Rho GDP dissociation inhibitor alpha; human recombinant ARHGDIA protein (MyBioSource) (protein, UniProt P52565 2-204, looked up)
Rho GDP-dissociation …: AEQEPTAEQLAQIAAENEEDEHSVNYKPPAQKSIQEIQELDKDDESLRKYKEALLGRVAVSADPNVPNVVVTGLTLVCSSAPGPLELDLTGDLESFKKQSFVLKEGVEYRIKISFRVNREIVSGMKYIQHTYRKGVKIDKTDYMVGSYGPRAEEYEFLTPVEEAPKGMLARGSYSIKSRFTDDDKTDHLSWEWNLTIKKDWKD
- MTT-based cell viability ([2]; 5 μg/mL of recombinant ARHGDIA protein): significant reduction
